We go through 4 molecules from US20030017166A1, “Combination preparation for the therapy of immunological diseases” (priority 2001, published 2003).

Data set [1] relates to contact allergy to nickel and cobalt (contact dermatitis). The data set can be described thus: Contact dermatitis induced with nickel or cobalt vaseline preparations in volunteer test subjects. The data set is classed as in vivo, human. The text has this:
Contact dermatitis was selected as a model disease for the large number of T cell-mediated immune reactions (generally: overshooting damaging immune reactions) since it can be induced by applying the contact allergens to the skin and the severity of the inflammatory reaction and immune reaction can readily be assessed by observing the skin symptoms.
The contact allergies were induced by applying preparations in white vaseline. These vaseline preparations contained either 1% cobaltII chloride or 5% nickelII sulfate.
For inducing the contact dermatitis, the vaseline preparation was applied once daily to an area of approx. 2×2 cm^2, usually on the upper arm or the lower arm.
The contact dermatitis was subdivided into the following levels in accordance with the extent of the inflammatory reaction:
Level 1: very minor inflammatory reaction, slight reddening of the skin;
Level 2: minor inflammatory reaction, reddening of the skin and possible itching;
Level 3: slight inflammatory reaction, reddening and edematous swelling of the skin, itching;
Level 4: moderate inflammatory reaction, reddening, edematous swelling, vesicles or blister formation, itching;
Level 5: pronounced inflammatory reaction: reddening, edematous swelling, vesicles and blister formation, weeping erosions and possible incrustation.
The severity of the inflammatory reaction which occurred was controlled by administering Ultralan® tablets systemically. When the antigen-specific regulatory immune response was induced, the inflammatory reaction was kept in the range of levels 1 and 2 by administering fluocortolone (Ultralan®). If a contact dermatitis of level 3 or higher developed despite the administration of Ultralan®, the dose of Ultralan® was then increased up to the next dosage level. If required, the dose was increased once again 2 days after the last increase in the dose.
As soon as it was no longer possible to observe any symptoms of the contact dermatitis at a given dosage level of Ultralan®, the dose was reduced on the following day and subsequently maintained once again until all the symptoms of the contact allergy had disappeared, after which the dose of Ultralan was reduced once again until, finally, it was no longer necessary to administer any Ultralan®.
As a rule, the following gradations in the daily doses of Ultralan® were employed: 20 mg, 15 mg, 10 mg, 7.5 mg, 5 mg, 2.5 mg and 0 mg.
An appropriate blood level of leflunomide was achieved by means of a loading dose of 100 mg on the first three consecutive days of the leflunomide therapy; after that, the leflunomide dose was reduced to 20 mg per day. Unless otherwise stated, this dose of leflunomide was maintained for up to 30 days after the time point at which the administration of flucortolone was terminated.
Subsequently, the leflunomide was eliminated at an accelerated rate from the body by means of administering 3× daily doses of 8 grams of cholestyramine over a period of 10 days.
As described above, the antigen is applied to the skin once a day using a preparation prepared from white vaseline. As a rule, the antigen was administered up to the tenth day after the last administration of leflunomide.
In the investigations into the development of a regulatory immune response in connection with the contact dermatitis, a fresh exposure to the antigen against which a regulatory immune response had been developed was carried out no earlier than 1 month after the last contact with the antigen.

Data set [2] concerns allergic rhinitis/conjunctivitis against hazelnut pollen and grass pollen. The experiment in a line: Allergic rhinitis/conjunctivitis on exposure to hazelnut pollen or grass pollen in patients. The data set is classed as in vivo, human. The source says: The effect of the combination therapy on type I allergy (allergic conjunctivitis and rhinitis) was investigated since type I allergy is an antibody-induced disease which is regulated by T cells. […] In the allergy investigations, contact with the antigen took place aerogenically, by exposure to hazelnut pollen or the pollen of grasses.
First of all, the test subjects were exposed to the allergen pollens in order to verify the existence of the allergy.
After a month, the two test subjects were given a loading dose of in each case 100 mg of leflunomide on 3 consecutive days. The test subjects were then given a constant daily dose of 20 mg of leflunomide.
On the 4th day of the leflunomide administration, the test subjects were exposed to one of the two allergens.
After these 30 days, the leflunomide was eliminated from the body in an accelerated manner by means of the 3× daily administration of cholestyramine over a period of 10 days. During this accelerated elimination, the daily exposure to antigen was continued.
In addition, the test subjects were able to use vasoconstrictors, such as Otriven® nasal drops and Yxin® eyedrops, to alleviate acute symptoms.
Neomycin sulfate was used, at a concentration of 50 mg/ml in physiological sodium chloride solution, as an immunomodulatory substance, as eyedrops and as a metered nasal spray. During the allergen exposure (season of airborne pollen), the neomycin solution was initially administered every 3 hours during the day. As soon as symptoms of an allergic reaction, such as severe itching, tears, flow of nasal secretion or sneezing impulses, occurred, this inflammatory reaction was suppressed, within the first 5 days, by using the dexametasone eyedrops, the dexamethasone nasal spray, xylometazoline nasal drops and Yxin® eyedrops. The steroids and the vasoconstrictors were administered as required.

The next data set concerns rheumatoid arthritis. The following applies: monotherapy; cited from earlier work.
The test system of data set [3] is susceptibility to infection. The note with it: clinical investigations and investigations on experimental animals; cited from earlier work.

As for `C[C@@H]1C[C@H]2[C@@H]3C[C@H](F)C4=CC(=O)C=C[C@]4(C)[C@H]3[C@@H](O)C[C@]2(C)[C@H]1C(=O)CO` [Ultralan®, fluocortolone], the “contact dermatitis while Ultralan was being reduced stepwise” value in data set [1] (Investigation 1.1, 4 test subjects, Ultralan alone, no leflunomide, continued allergen exposure) is given as “reappeared”. The “time to complete disappearance of contact allergy symptoms” value in data set [1] (Investigation 1.1, Ultralan added to leflunomide and allergen, allergy adjusted to grade 1-2) is 3 to 5 days. For the same molecule, in data set [1] (Investigation 1.5, allergen continued for further 2 weeks after Ultralan discontinued), the “symptoms of contact allergy after brief Ultralan suppression and discontinuation” value is recorded as “no symptoms of any contact allergy appeared”. Besides, the “symptoms of contact allergy after abrupt Ultralan discontinuation” value in data set [1] (Investigation 2.1, 2 test subjects, fully suppressive Ultralan dose for 4 weeks with leflunomide and allergen, one day after discontinuation) is “Massive symptoms of the contact allergy developed”. Besides, in data set [1] (Investigation 3.2, single administration of 5 mg Ultralan with simultaneous leflunomide), the “time to disappearance of symptoms” value is reported as “one”. For the same molecule, the “dose of Ultralan sufficient to restrict the symptoms of the contact allergy to levels 1 to 2” value in data set [1] (systemic tablets, as a rule) was “at most 10 mg/day”. The “allergic symptoms immediately after antigen exposure under Ultralan and vasoconstrictors” value in data set [2] (Investigation 4.1, 10 mg Ultralan, Otriven nasal drops, Yxin eyedrops, with leflunomide) was “only slight symptoms of an allergic reaction”. In addition, in data set [2] (Investigation 4.1, constant treatment with Ultralan and leflunomide), the “time to complete disappearance of allergy symptoms directly after antigen exposure” value is given as at most 4 days.
In the case of `C[C@@H]1C[C@H]2[C@@H]3CCC4=CC(=O)C=C[C@]4(C)[C@@]3(F)[C@@H](O)C[C@]2(C)[C@@]1(O)C(=O)CO` [dexamethasone], in data set [2] (Investigation 5.1, under neomycin solution 50 mg/ml every 3 hours, start of first 5 days), the “requirement for dexamethasone administrations, initial average” value was 4 administrations per day. For the same molecule, the “requirement for dexamethasone administrations, after decrease” value in data set [2] (Investigation 5.1, under neomycin solution, within the first 5 days) was 2 administrations per day.
With `Cc1oncc1C(=O)Nc1ccc(C(F)(F)F)cc1` [leflunomide, N-(4-trifluoromethylphenyl)-5-methylisoxazole-4-carboxamide], the “effect on rheumatoid arthritis when administered on its own” value in the data set with rheumatoid arthritis is “able to reduce the progression of rheumatoid arthritis but is not able to cure the disease”. In addition, the susceptibility to infection entry in data set [3] is “does not increase susceptibility to infection”. In addition, the “symptoms of contact allergy on provocation with the antigen given during leflunomide” value in data set [1] (Investigation 1.1, 4 weeks after end of treatment cycle, 2 weeks provocation) is given as “did not appear in any of the test subjects”. Besides, the “symptoms of the contact allergy during 30 days of daily leflunomide and antigen” value in data set [1] (Investigation 1.1, after steroids completely discontinued) is reported as “not possible to observe any symptoms of the contact allergy”. Moreover, the “symptoms of the contact allergy during accelerated elimination of leflunomide” value in data set [1] (Investigation 1.1, cholestyramine over 10 days, continued allergen exposure) is on record as “not observed in any of the test subjects”. For the same molecule, the “level of skin reaction (contact dermatitis levels 1-5)” value in data set [1] (Investigation 1.1, leflunomide 100 mg x 3 days then 20 mg/day, allergen from 4th day, within 2 days, before steroids) is recorded as 3 to 4 level. Further, the “level of contact dermatitis on exposure to the antigen not given during leflunomide” value in data set [1] (Investigation 1.2, 4 weeks later, within 2 days) lay in the range of 3 to 4 level. In addition, in data set [1] (Investigation 1.3, allergen switched on 3rd day), the “symptoms of contact allergy to the leflunomide-associated allergen applied on still inflamed skin” value is on record as “persisted as long as the contact allergen was being administered”. For the same molecule, the “contact allergy on re-exposure to the leflunomide-associated antigen after inflammation regressed” value in data set [1] (Investigation 1.4, after 4 weeks break, exposure period of 2 weeks) was “did not react with any contact allergy”. In addition, the “symptoms of contact allergy after switch to the leflunomide-associated antigen under inflammation” value in data set [1] (Investigation 1.5, period of 2 weeks) is given as “persisted”. Also, in data set [1] (Investigation 1.5, within 2 days), the “level of contact allergy on exposure to the antigen not given during leflunomide” value fell in the range of 3 to 4 level. Also, the “symptoms of contact allergy on exposure to the leflunomide-associated allergen” value in data set [1] (Investigation 1.6, 4 weeks later, first 2 weeks of exposure) is on record as “No symptoms of a contact allergy were observed”. In addition, the “time to disappearance of inflammatory reactions after UV-A on the side with contact allergen” value in data set [1] (Investigation 1.6, continued allergen exposure) is at least 7 days. For the same molecule, in data set [1] (Investigation 1.6, identical irradiation of both arms), the “symptoms of inflammation after UV-A irradiation on arm with contact allergen versus arm without” value is recorded as “somewhat stronger”. Also, the “course of contact allergy on allergen exposure” value in data set [1] (Investigation 3.1, shortened 2-week phase, days following first reddening) is listed as “increasing symptoms of a contact allergy”. The “onset of slight reddening after beginning allergen exposure” value in data set [1] (Investigation 3.1, steroid-free leflunomide plus allergen phase shortened from 30 days to 2 weeks, exposure 4 weeks after discontinuing leflunomide) was 3 to 4 days. Besides, the “regulatory immune response 4 weeks after treatment” value in data set [1] (Investigation 3.3, leflunomide and contact allergen continued for 20 days, then accelerated elimination) was “a stable antigen-specific regulatory immune response had developed”. In addition, in data set [2] (Investigation 4.1, 2 test subjects, 4th day of leflunomide, before steroid), the “reaction on first allergen exposure under leflunomide” value is on record as “reacted immediately with allergic symptoms”. The “allergy symptoms during steroid-free leflunomide plus antigen phase and accelerated elimination” value in data set [2] (Investigation 4.1, 30 days plus 10 days cholestyramine, daily antigen) is listed as “no symptoms of an allergy appeared”. For the same molecule, the “allergic symptoms on re-exposure to the allergen given during leflunomide” value in data set [2] (Investigation 4.1, after one month break, daily exposure over 2 weeks) is “did not develop any symptoms of an allergic reaction”. Besides, the “allergy symptoms on exposure to the antigen not given during leflunomide” value in data set [2] (Investigation 4.2, grass pollen dust 1x daily, within 2 days) is “developed symptoms of an allergy”. Also, in data set [2] (Investigation 4.3, 3rd and 4th day, only leflunomide-associated antigen administered), the “allergy symptoms to the leflunomide-associated antigen under inflammatory conditions” value is recorded as “Symptoms of an allergy developed”. In addition, the “allergy symptoms on re-exposure to the leflunomide-associated antigen” value in data set [2] (Investigation 4.4, after a further 4 weeks, 2 weeks of daily exposure) is recorded as “No symptoms of an allergy developed”.
For Neomycin sulfate, the “allergy symptoms on intensified antigen exposure during neomycin” value in data set [2] (Investigation 5.1, 2 test subjects, direct exposure to hazelnut pollen twice daily, no dexamethasone or cromoglycic acid) is given as “no allergy symptoms appeared in either of the test subjects”. Further, in data set [2] (Investigation 5.1, after a month break, daily exposure for 2 weeks), the “allergy symptoms on re-exposure to the allergen given during neomycin” value was “did not exhibit any allergy symptoms”. Moreover, the “allergy symptoms on exposure to the antigen not given during neomycin” value in data set [2] (Investigation 5.2, dust of grass pollens 1x daily, within 2 days) is given as “developed symptoms of an allergy”. Further, the “allergy symptoms to the neomycin-associated antigen under inflammatory conditions” value in data set [2] (Investigation 5.3, 3rd and 4th day, only neomycin-associated antigen administered) is given as “Symptoms of an antigy developed”. Moreover, the “allergy symptoms on re-exposure to the neomycin-associated antigen” value in data set [2] (Investigation 5.4, after another break of 4 weeks, 2 weeks of daily exposure) is “had not developed any allergy symptoms”.
